Results on four cell lines are retold here after the supplement of paper PMC10307832.

Common to all, as to test: relative viability (nuclei count vs DMSO), 5 days (fraction); higher = more cells survive
Compound in test [1]: C1=CC2=C(C=C(C(=C2N=C1)O)N=NC3=CC4=C(C=C3)C=C(C=C4)S(=O)(=O)O)S(=O)(=O)O + Cc1nc(Nc2ncc(C(=O)Nc3c(C)cccc3Cl)s2)cc(N2CCN(CCO)CC2)n1 [Dasatinib] (partner 0.075 µM)
Put shortly:
(§1)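 Lung cancer cell lines were seeded in 1536-well plates and dosed by pin tool the next day, with either a single drug or a fixed anchor-drug dose combined with five library-drug doses (not always all listed) spaced in √10 steps. Five days later, one step fixed the cells and stained their nuclei (final 0.05% Triton X-100, 1% formaldehyde, 1 ug/ml Hoechst), and nuclei were counted on 4× images. Relative viability is the nuclei count in treated wells divided by the count in vehicle wells, and each value is the median of duplicate plates.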

Compound in the test “AT-7519 + Crizotinib”: O=C(NC1CCNCC1)c1n[nH]cc1NC(=O)c1c(Cl)cccc1Cl [AT-7519] + C[C@@H](Oc1cc(-c2cnn(C3CCNCC3)c2)cnc1N)c1c(Cl)ccc(F)c1Cl [Crizotinib] (partner 1 µM)
Put shortly: as §1

Compound in the test “AT-7519 + Olaparib”: O=C(NC1CCNCC1)c1n[nH]cc1NC(=O)c1c(Cl)cccc1Cl [AT-7519] + O=C(c1cc(Cc2n[nH]c(=O)c3ccccc23)ccc1F)N1CCN(C(=O)C2CC2)CC1 [Olaparib] (partner 8 µM)
Put shortly: as §1

Compound in test [2]: C1=CC2=C(C=C(C(=C2N=C1)O)N=NC3=CC4=C(C=C3)C=C(C=C4)S(=O)(=O)O)S(=O)(=O)O + CS(=O)(=O)CCNCc1ccc(-c2ccc3ncnc(Nc4ccc(OCc5cccc(F)c5)c(Cl)c4)c3c2)o1 [Lapatinib] (partner 2 µM)
The essentials: as §1

On to SK-LU-1, for which the relative viability in test [1] (first compound 0.08 µM) was found to be 0.2; in test [1] (first compound 0.253 µM), 0.177; in test [1] (first compound 0.8 µM) it was 0.212; in test [1] (first compound 2.53 µM), 0.167; in test [1] (first compound 8 µM), 0.172; with AT-7519 + Crizotinib (first compound 0.01 µM), 1.12. Moreover, the relative viability was determined as 0.799 with AT-7519 + Crizotinib (first compound 0.03162 µM); 0.713 with AT-7519 + Crizotinib (first compound 0.3162 µM); 0.48 with AT-7519 + Crizotinib (first compound 1 µM); 0.462 with AT-7519 + Olaparib (first compound 0.01 µM); 0.458 with AT-7519 + Olaparib (first compound 0.03162 µM); 0.489 with AT-7519 + Olaparib (first compound 0.3162 µM). Moreover, the relative viability in the test with AT-7519 + Olaparib (first compound 1 µM) was found to be 0.324; in test [2] (first compound 0.08 µM), 1.06; in test [2] (first compound 0.253 µM), 0.88; in test [2] (first compound 0.8 µM), 0.943; in test [2] (first compound 2.53 µM) it was 0.881; in test [2] (first compound 8 µM) it was 0.959.
On to SK-MES-1, for which the relative viability in test [1] (first compound 0.08 µM) was found to be 0.43; in test [1] (first compound 0.253 µM), 0.35; in test [1] (first compound 0.8 µM), 0.353; in test [1] (first compound 2.53 µM) it was 0.531; in test [1] (first compound 8 µM) it was 0.477; with AT-7519 + Crizotinib (first compound 0.01 µM), 1.05. The relative viability is 0.903 in the test with AT-7519 + Crizotinib (first compound 0.03162 µM); 0.854 with AT-7519 + Crizotinib (first compound 0.3162 µM); 0.787 with AT-7519 + Crizotinib (first compound 1 µM); 0.662 with AT-7519 + Olaparib (first compound 0.01 µM); 0.791 with AT-7519 + Olaparib (first compound 0.03162 µM); 0.56 with AT-7519 + Olaparib (first compound 0.3162 µM). Further, the relative viability with AT-7519 + Olaparib (first compound 1 µM) amounted to 0.257; in test [2] (first compound 0.08 µM), 0.482; in test [2] (first compound 0.253 µM), 0.444; in test [2] (first compound 0.8 µM), 0.468; in test [2] (first compound 2.53 µM), 0.464; in test [2] (first compound 8 µM), 0.546.
For SW 1573, the relative viability in test [1] (first compound 0.08 µM) came to 0.545; in test [1] (first compound 0.253 µM) it was 0.572; in test [1] (first compound 0.8 µM) it was 0.417; in test [1] (first compound 2.53 µM), 0.513; in test [1] (first compound 8 µM), 0.273; with AT-7519 + Crizotinib (first compound 0.01 µM), 0.817. For the same cell line, the relative viability with AT-7519 + Crizotinib (first compound 0.03162 µM) came out at 0.755; in the test with AT-7519 + Crizotinib (first compound 0.3162 µM), 0.84; with AT-7519 + Crizotinib (first compound 1 µM), 0.368; with AT-7519 + Olaparib (first compound 0.01 µM) it was 0.463; with AT-7519 + Olaparib (first compound 0.03162 µM) it was 0.505; with AT-7519 + Olaparib (first compound 0.3162 µM), 0.2. The relative viability with AT-7519 + Olaparib (first compound 1 µM) was 0.0972; in test [2] (first compound 0.08 µM) it was 1.05; in test [2] (first compound 0.253 µM), 1; in test [2] (first compound 0.8 µM) it was 1.04; in test [2] (first compound 2.53 µM), 1.14; in test [2] (first compound 8 µM), 0.353.
Consider UMC-11, for which the relative viability in test [1] (first compound 0.08 µM) turned out to be 0.493; in test [1] (first compound 0.253 µM), 0.454; in test [1] (first compound 0.8 µM), 0.456; in test [1] (first compound 2.53 µM), 0.439; in test [1] (first compound 8 µM), 0.441; with AT-7519 + Crizotinib (first compound 0.01 µM) it was 0.677. Moreover, the relative viability with AT-7519 + Crizotinib (first compound 0.03162 µM) amounted to 0.539; in the test with AT-7519 + Crizotinib (first compound 0.3162 µM), 0.302; with AT-7519 + Crizotinib (first compound 1 µM), 0.13; with AT-7519 + Olaparib (first compound 0.01 µM), 0.333; in the test with AT-7519 + Olaparib (first compound 0.03162 µM), 0.368; in the test with AT-7519 + Olaparib (first compound 0.3162 µM), 0.373. The relative viability with AT-7519 + Olaparib (first compound 1 µM) worked out at 0.229; in test [2] (first compound 0.08 µM), 1.07; in test [2] (first compound 0.253 µM) it was 0.969; in test [2] (first compound 0.8 µM) it was 0.889; in test [2] (first compound 2.53 µM) it was 1.02; in test [2] (first compound 8 µM), 0.716.
